From patent publication US20090156582A1, “Pyrazole Compound” (priority 2005, published 2009)

Biological target: T1, recombinant GSK3β enzyme (human GSK3β) (Homo sapiens, UniProt P49841)
T1 construct: FLAG (N); made in house; host or cells: Sf-21 insect cells, recombinant baculovirus (pFASTBAC1 / BAC-TO-BAC)
Assay: Measurement of GSK3β inhibitory activity
Type: biochemical
Settings: glycogen synthase peptide substrate, Kinase Glo luminescence, read-out: IC50 (concentration of test compound needed for 50% inhibition of luminescent intensity), GSK3β inhibitory activity
Description: Human GSK3β gene was cloned by a PCR method using a primer set:
prepared using human brain cDNA (Clontech; trade name: QUICK-Clone cDNA) as a template and in reference to the base sequence of GSK3β gene registered in GenBank under Accession Number NM_002093.
PCR was done according to the protocol attached to KOD plus DNA polymerase (Toyo Boseki Kabushiki Kaisha). The obtained PCR product was electrophoresed on agarose gel (1%), and 1.2 kb of DNA fragment including GSK3β gene was collected from the gel and then digested with restriction enzymes EcoR I and Sal I. The restriction enzyme-treated DNA was electrophoresed on agarose gel (1%). The obtained DNA fragment was collected, and ligated to the plasmid pFASTBAC1 (Invitrogen), which had been digested with restriction enzyme EcoR I and Sal I, to produce expression plasmid pFB-GSK3B. The base sequence of insertion fragment was confirmed to find that it corresponded to the objective sequence. In addition, virus stock BAC-GSK3B of recombinant Baculovirus was prepared using BAC-TO-BAC Baculovirus Expression System (Invitrogen).
Sf-21 cells (Invitrogen) were seeded on Sf-900 II SFM medium (Invitrogen)(150 ml) containing 10% fetal calf serum at 1×10^6 cells/ml, and cultured at 27° C. for 24 hr. The virus stock […] obtained above of recombinant Baculovirus was added by 150 μl to the obtained culture medium, and the cells were cultured for another 60 hr. The culture medium was centrifuged (3000 rpm, 10 min) to separate the cells, and the cells were washed once with PBS. The cells were suspended in 10 ml of cell lysis buffer (25 mM HEPES (pH 7.5), 1% Triton X, 130 mM sodium chloride, 1 mM EDTA, 1 mM Dithiothreitol, 25 mM β-glycerophosphate, Protease inhibitor Complete (Boehringer), 1 mM Sodium orthovanadate), treated 4 times using a homogenizer (POLYTRON) at 20000 rpm for 30 sec to disrupt the cells. The disrupted solution of cells was centrifuged (40000 rpm, 45 min.), and GSK3β was purified from the obtained supernatant using Anti-FLAG M2 Affinity Gel (Sigma Ltd.).
10 μl of ATP solution (2.5 μM ATP) was added to the obtained mixture, and the mixture was reacted at room temperature for 30 min. Kinase Glo Reagent (Promega) (50 μl) was added to the reaction solution to stop the reaction. After reaction at room temperature for 10 min, the luminescent intensity was measured using ARVO multilabel counter (PerkinElmer Life Sciences). The concentrations of the test compounds needed for 50% inhibition of luminescent intensity (IC50 value) were calculated by PRISM 3.0 (GraphPad Software).

T1 sequence (P49841 whole entry): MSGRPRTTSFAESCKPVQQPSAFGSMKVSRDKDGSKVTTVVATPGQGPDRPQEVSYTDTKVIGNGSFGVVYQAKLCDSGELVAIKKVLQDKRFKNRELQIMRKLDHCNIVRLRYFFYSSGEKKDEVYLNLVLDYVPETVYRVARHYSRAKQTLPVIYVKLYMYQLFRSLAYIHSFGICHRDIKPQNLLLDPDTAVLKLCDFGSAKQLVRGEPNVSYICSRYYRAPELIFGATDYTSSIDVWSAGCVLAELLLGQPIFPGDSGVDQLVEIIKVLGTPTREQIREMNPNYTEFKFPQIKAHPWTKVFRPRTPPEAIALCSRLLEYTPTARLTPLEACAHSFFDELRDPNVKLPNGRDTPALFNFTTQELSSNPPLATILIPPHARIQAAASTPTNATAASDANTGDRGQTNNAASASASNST

Compound | IC50 [nM]
CC(=O)Nc1cccc(C(=O)Nc2c[nH]nc2C(=O)NCC#N)c1 [Example 380, 4-((3-(acetylamino)benzoyl)amino)-N-(cyanomethyl)-1H-pyrazole-3-carboxamide] | < 100
CC(=O)Nc1cccc(C(=O)Nc2c[nH]nc2C(=O)NCCOC(C)(C)C)c1 [Example 381, 4-((3-(acetylamino)benzoyl)amino)-N-(2-tert-butoxyethyl)-1H-pyrazole-3-carboxamide] | 140
CC(=O)Nc1cccc(C(=O)Nc2c[nH]nc2C(=O)NCCS(C)(=O)=O)c1 [Example 382, 4-((3-(acetylamino)benzoyl)amino)-N-(2-(methylsulfonyl)ethyl)-1H-pyrazole-3-carboxamide] | < 100
CC(=O)Nc1cccc(C(=O)Nc2c[nH]nc2C(=O)NCCS(=O)(=O)c2ccc(Cl)cc2)c1 [Example 383, 4-((3-(acetylamino)benzoyl)amino)-N-(2-((4-chlorophenyl)sulfonyl)ethyl)-1H-pyrazole-3-carboxamide] | < 100
CC(=O)Nc1cccc(C(=O)Nc2c[nH]nc2C(=O)NCCS(=O)(=O)c2ccccn2)c1 [Example 384, 4-((3-(acetylamino)benzoyl)amino)-N-(2-(pyridin-2-ylsulfonyl)ethyl)-1H-pyrazole-3-carboxamide] | < 100
CC(=O)Nc1cccc(C(=O)Nc2c[nH]nc2C(=O)NCCCOC(C)C)c1 [Example 385, 4-((3-(acetylamino)benzoyl)amino)-N-(3-isopropoxypropyl)-1H-pyrazole-3-carboxamide] | < 100
Cc1cccc(C(=O)Nc2c[nH]nc2C(=O)NCC(F)(F)F)n1 [Example 389, 6-methyl-N-(3-(((2,2,2-trifluoroethyl)amino)carbonyl)-1H-pyrazol-4-yl)pyridine-2-carboxamide] | < 100
O=C(Nc1c[nH]nc1C(=O)NCCCOc1ccccc1)c1ccccn1 [Example 391, N-(3-(((3-phenoxypropyl)amino)carbonyl)-1H-pyrazol-4-yl)pyridine-2-carboxamide] | < 100
O=C(Nc1c[nH]nc1C(=O)NCCC(F)(F)F)c1ccccn1 [Example 393, N-(3-(((3,3,3-trifluoropropyl)amino)carbonyl)-1H-pyrazol-4-yl)pyridine-2-carboxamide] | < 100
N#CCNC(=O)c1n[nH]cc1NC(=O)c1ccccn1 [Example 395, N-(3-(((cyanomethyl)amino)carbonyl)-1H-pyrazol-4-yl)pyridine-2-carboxamide] | < 100
O=C(Nc1c[nH]nc1C(=O)NCCNc1ccccn1)c1ccccn1 [Example 397, N-(3-(((2-(pyridin-2-ylamino)ethyl)amino)carbonyl)-1H-pyrazol-4-yl)pyridine-2-carboxamide] | < 100
O=C(Nc1c[nH]nc1C(=O)NCCNc1ccccc1)c1ccccn1 [Example 399, N-(3-(((2-anilinoethyl)amino)carbonyl)-1H-pyrazol-4-yl)pyridine-2-carboxamide] | < 100
O=C(Nc1c[nH]nc1C(=O)NCCO)c1ccccn1 [Example 401, N-(3-(((2-hydroxyethyl)amino)carbonyl)-1H-pyrazol-4-yl)pyridine-2-carboxamide] | < 100
N#CCCNC(=O)c1n[nH]cc1NC(=O)C1CCCC1 [Example 411, N-(2-cyanoethyl)-4-((cyclopentylcarbonyl)amino)-1H-pyrazole-3-carboxamide] | < 100
COc1cccc(C(=O)Nc2c[nH]nc2C(=O)NCCC#N)c1 [Example 414, N-(2-cyanoethyl)-4-(3-methoxybenzoylamino)-1H-pyrazole-3-carboxamide] | < 100
CC(C)(C)C(=O)Nc1c[nH]nc1C(=O)NCCC#N [Example 415, N-(2-cyanoethyl)-4-(2,2-dimethylpropanoylamino)-1H-pyrazole-3-carboxamide] | < 100
N#CCCNC(=O)c1n[nH]cc1NC(=O)c1cccc(C#N)c1 [Example 417, N-(2-cyanoethyl)-4-(3-cyanobenzoylamino)-1H-pyrazole-3-carboxamide] | < 100
Cc1ccc(C(=O)Nc2c[nH]nc2C(=O)NCCC#N)cc1 [Example 418, N-(2-cyanoethyl)-4-(4-methylbenzoylamino)-1H-pyrazole-3-carboxamide] | < 100
O=C(Nc1c[nH]nc1C(=O)NCC(F)(F)F)c1ccccc1 [Example 422, 4-(benzoylamino)-N-(2,2,2-trifluoroethyl)-1H-pyrazole-3-carboxamide] | < 100
CC(C)OCCNC(=O)c1n[nH]cc1NC(=O)c1ccccc1 [Example 424, 4-(benzoylamino)-N-(2-isopropoxyethyl)-1H-pyrazole-3-carboxamide] | < 100
Cc1cccc(C(=O)Nc2c[nH]nc2C(=O)NCCOc2ccc(F)cc2)n1 [Example 428] | < 100
CC(C)NC(=O)c1n[nH]cc1NC(=O)COc1ccccc1 [compound 001, N-isopropyl-4-((phenoxyacetyl)amino)-1H-pyrazole-3-carboxamide] | 267
CNC(=O)c1n[nH]cc1NC(=O)C(c1ccccc1)c1ccccc1 [compound 003] | < 100
CNC(=O)c1n[nH]cc1NC(=O)COc1ccccc1 [compound 004] | < 100
CNC(=O)c1n[nH]cc1NC(=O)C1CCCCC1 [compound 005] | 307
CC(=O)Nc1c[nH]nc1C(=O)NC(C)C [compound 017] | < 100
CC(C)NC(=O)c1n[nH]cc1NC(=O)C(c1ccccc1)c1ccccc1 [compound 019] | < 100

Compound | IC50 [nM]
CC(C)NC(=O)c1n[nH]cc1NC(=O)C1CCCCC1 [compound 020] | < 100
CCOCC(=O)Nc1c[nH]nc1C(=O)NC(C)C [compound 021] | < 100
CC(C)NC(=O)c1n[nH]cc1NC(=O)Cc1ccc(-c2ccccc2)cc1 [compound 022] | 233
CC(C)NC(=O)c1n[nH]cc1NC(=O)/C=C/c1ccccc1 [compound 023] | < 100
CC(C)NC(=O)c1n[nH]cc1NC(=O)CCc1ccccc1 [compound 024] | < 100
COc1ccccc1CC(=O)Nc1c[nH]nc1C(=O)NC(C)C [compound 025] | 245
CC(C)NC(=O)c1n[nH]cc1NC(=O)Cc1c[nH]c2ccccc12 [compound 026] | 169
CC(C)NC(=O)c1n[nH]cc1NC(=O)c1ccccc1 [compound 027] | < 100
CC(C)NC(=O)c1n[nH]cc1NC(=O)c1ccc(-c2ccccc2)cc1 [compound 028] | < 100
COc1ccc(C(=O)Nc2c[nH]nc2C(=O)NC(C)C)cc1 [compound 030] | < 100
CC(C)NC(=O)c1n[nH]cc1NC(=O)c1ccc(F)cc1F [compound 031] | < 100
CC(C)NC(=O)c1n[nH]cc1NC(=O)c1ccc(Oc2ccccc2)cc1 [compound 032] | < 100
CCCN(CCC)S(=O)(=O)c1ccc(C(=O)Nc2c[nH]nc2C(=O)NC(C)C)cc1 [compound 033] | 171
CC(=O)Nc1cccc(C(=O)Nc2c[nH]nc2C(=O)NC(C)C)c1 [compound 034] | < 100
CC(C)NC(=O)c1n[nH]cc1NC(=O)c1ccc(OC(F)(F)F)cc1 [compound 035] | < 100
CC(C)NC(=O)c1n[nH]cc1NC(=O)c1ccc2[nH]ccc2c1 [compound 036] | < 100
CC(C)NC(=O)c1n[nH]cc1NC(=O)c1cnccn1 [compound 037] | < 100
O=C(/C=C/c1ccccc1)Nc1c[nH]nc1C(=O)N1CCCC1 [compound 045] | 269
CC(=O)Nc1c[nH]nc1C(=O)NC1CCCC1 [compound 059] | < 100
O=C(COc1ccccc1)Nc1c[nH]nc1C(=O)NC1CCCC1 [compound 062] | < 100
O=C(NC1CCCC1)c1n[nH]cc1NC(=O)C1CCCCC1 [compound 063] | < 100
CCOCC(=O)Nc1c[nH]nc1C(=O)NC1CCCC1 [compound 064] | < 100
O=C(Cc1ccc(-c2ccccc2)cc1)Nc1c[nH]nc1C(=O)NC1CCCC1 [compound 065] | 234
O=C(CCc1ccccc1)Nc1c[nH]nc1C(=O)NC1CCCC1 [compound 067] | < 100
COc1ccccc1CC(=O)Nc1c[nH]nc1C(=O)NC1CCCC1 [compound 068] | < 100
O=C(Cc1c[nH]c2ccccc12)Nc1c[nH]nc1C(=O)NC1CCCC1 [compound 069] | < 100
